Assay results taken from patent US20250186379A1, “METHODS AND AGENTS FOR DECREASING INSULIN RESISTANCE” (Whitehead Institute for Biomedical Research, priority 2021, published 2025).
Entries after “also recorded” stand apart in the source; their conditions may differ.

Test system: IR condensates
Assay: Imaging of IR puncta/condensates (immunofluorescence, IR-GFP) in HepG2 cells
Assay type: cell-based, human
Procedure: For insulin sensitivity and resistance experiments in HepG2 cells, cells were washed with EMEM once and cultured in EMEM for two days. […] To wash out insulin, cells were washed in EMEM seven times, which includes three quick washes, three 5 min washes and a long 20 minute-wash in EMEM at 37° C. In order to investigate insulin response, cells were acutely treated for 5 min with insulin diluted in EMEM supplemented with 1.25% fatty acid-free BSA at 37° C. with 5% CO2 in a humidified incubator.
Metformin (SIGMA, D150959-5G) was resuspended in sterile water to a concentration of 1M and diluted to the reported concentrations in the figures in cell media. […]
HepG2 cells, human liver spheroids and human tissue liver sections were fixed in 4% PFA (VWR, BT140770-10X10) in PBS for 10 min at room temperature. Cells were washed in PBS three times for 5 min and then blocked with 4% IgG-free BSA (VWR, 102643-516) for 15-60 min at room temperature. Cells were then incubated with 1:500 primary antibody in 4% IgG-free BSA at 4° C. overnight. The next day, cells were washed three times with PBS and incubated with 1:500 secondary antibodies in 4% IgG-free BSA at room temperature for 1 hr covered in foil. Cells were washed three times with PBS for 5 min. DNA was stained using 1:5000 Hoechst in PBS for 5 min at RT. Cells were washed three times with PBS for 5 min, stored at 4° C. until imaging. For tissue sections, samples were mounted using Vectashield mounting media (Vector Laboratories, Inc, H-1000). LSM880 microscope with Airyscan detector (ZEISS) was used for image acquisition. Images were then processed using Fiji/ImageJ v2.1.0/153c.
Cells expressing endogenous IR tagged with GFP were grown on 35 mm glass bottom dishes (MatTek Corporation, P35G-1.5-20-C). Cells were imaged at 37° C. using the SM880 Microscope with Airyscan detector with 63× objective and Zen Black software (ZEISS) at the W.M. Keck Microscopy Facility, MIT. Images were then processed using Fiji/ImageJ v2.1.0/153c.
To quantify IR fluorescent signal in puncta, Fiji/ImageJ v2.1.0/153c was used. A circle or an oval was drawn around IR puncta using the oval selection tool and the average fluorescence intensity in the circle/oval (=in the puncta) was determined using the measure tool on Fiji. Background was then subtracted as previously described. To quantify IR fluorescent signal at puncta in various cellular compartments, applicant identified the location of the plasma membrane, cytoplasm, nucleus and RNA FISH spots as follows. The plasma membrane location was identified based on IR immunofluorescence signal, IR-GFP fluorescent signal or CK18 immunofluorescence signal or cell edge. The nucleus was determined by the Hoechst stain for immunofluorescence and tc-PALM experiments or by IR-GFP fluorescence when HepG2 cells expressing IR-GFP were imaged. Given the overlap between Hoechst fluorescence and GFP fluorescence, artefactual green fluorescence coming from the Hoechst confounded IR puncta identification in the nucleus. Since the differences in IR puncta intensity and concentration between cytoplasm and nucleus in HepG2 cells was clear, nuclear outline was easily drawn based on IR-GFP fluorescent signal. Cytoplasm was considered the region between the plasma membrane and the nucleus. RNA FISH spots were identified based on RNA FISH probe fluorescence. Within the FISH spot, IR intensity was measured using the measure tool.
To estimate the number of IR puncta at the plasma membrane, cytoplasm, nucleus or in entire cells, IR puncta were initially counted in a cell slice using Fiji. The number obtained from the cell slice was then multiplied based on the estimated size of the plasma membrane, cytoplasm, nucleus or entire cell, which were obtained considering the length and width of the cell under investigation and the estimated height (˜5 um). […]

[1] = insulin sensitive HepG2 cells, acute 3 nM insulin
[2] = insulin resistant HepG2 cells, metformin concentration series (FIG. 5A,B)

TNFα
insulin-stimulated IR incorporation into puncta (HepG2 cells, 2 days pathological TNFα or high nutrients, 3 nM insulin 5 min (FIG. 27)): caused a decrease in insulin-stimulated IR incorporation into puncta

insulin: insulin (Sigma Aldrich, I9278-5ML) used for acute stimulation and chronic physiological or pathological exposure
incorporation of additional IR into condensates/puncta (insulin resistant HepG2 cells, acute insulin (3 nM)): did not promote incorporation of additional IR into condensates; also recorded: did not promote incorporation of additional IR into puncta | IR signal intensity in puncta [1]: caused an increase; also recorded: elevated IR-GFP signal in these puncta; also recorded: promotes an increase in IR-GFP signal in IR puncta | number of IR puncta in the cytoplasm and nucleus [1]: caused an increase; also recorded: increased numbers of cytoplasmic and nuclear puncta; also recorded: an increase in the number of IR puncta in the nucleus and cytoplasm | IR-incorporation into condensates over a range of insulin concentrations (insulin-sensitive cells, 0, 0.1, 1, 10, 100 nM insulin 5 min (FIGS. 17G-17H)): non-linear transition

CN(C)C(=N)N=C(N)N [metformin, reference compound]
IR condensate rescue (insulin resistant HepG2 cells, 12.5 uM metformin): significant; also recorded: evident | intensity of IR signal in condensates [2]: dose-dependent increase | number of IR containing condensates [2]: dose-dependent increase | effect on IR condensates (insulin sensitive HepG2 cells, 50 nM metformin as printed (FIG. 13A)): little or no effect on IR condensates | IR signal in puncta (insulin-resistant IR-GFP HepG2 cells, 12.5 μM metformin, 3 nM insulin 5 min (FIGS. 16D-16E, 30A)): partially restored IR signal in these puncta | effect on IR puncta / IR condensates (insulin-sensitive HepG2 IR-GFP cells with or without metformin (50 μM in FIG. 30B), 3 nM insulin 5 min): little or no effect on IR puncta; also recorded: does not affect IR condensates in insulin sensitive cells
